Consider 28 compounds from patent US20250026752A1, “POSITIVE ALLOSTERIC MODULATORS OF THE MUSCARINIC ACETYLCHOLINE RECEPTOR M4” (Vanderbilt University, priority 2021, published 2025).

The test addresses T1, human mAChR M4 (Homo sapiens, UniProt P08173).
T1 construct: expressed in transfected cells; host or cells: CHO-K1 (ATCC), stably expressing hM4 and Gqi5
T1 sequence (P08173 1-479): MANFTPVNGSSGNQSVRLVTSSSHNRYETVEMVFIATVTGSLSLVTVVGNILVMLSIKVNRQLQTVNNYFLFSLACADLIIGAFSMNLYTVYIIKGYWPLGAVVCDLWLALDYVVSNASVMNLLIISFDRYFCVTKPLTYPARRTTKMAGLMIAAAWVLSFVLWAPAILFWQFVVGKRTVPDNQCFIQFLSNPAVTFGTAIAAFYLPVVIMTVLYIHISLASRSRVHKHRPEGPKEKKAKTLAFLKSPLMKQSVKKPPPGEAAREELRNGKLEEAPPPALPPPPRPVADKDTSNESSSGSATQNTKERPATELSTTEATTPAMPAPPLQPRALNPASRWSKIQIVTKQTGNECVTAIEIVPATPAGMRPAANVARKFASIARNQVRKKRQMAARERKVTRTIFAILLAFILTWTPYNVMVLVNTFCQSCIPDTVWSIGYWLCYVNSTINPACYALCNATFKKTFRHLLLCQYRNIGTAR
In words: mAChR M4 cell-based functional assay: calcium flux (Fluo-4, FDSS), positive allosteric modulator activity on the EC20 acetylcholine response, hM4-Gqi5 CHO-K1 cells. Conditions: for Emax at 30 µM: CHO-K1, human M4, % ACh maximum at 30 μM; for EC50: human M4, PAM activity on EC20 acetylcholine response, calcium flux, read-out: Human M4 EC50. Put shortly: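 Potentiation was taken as the concentration-dependent rise in the EC20 acetylcholine calcium response, fitted by a four-parameter logistic with EC20 as baseline. Fluo-4-loaded hM4-Gqi5 CHO-K1 cells received 11-point, threefold-diluted compound before acetylcholine at 144 s; FDSS read at 1 Hz.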

`FC(F)(F)c1ccc2ncnc(N3CCc4ncc(N5CCOc6ncccc65)cc4C3)c2c1` [Compound 215, 1-(6-(6-(trifluoromethyl)quinazolin-4-yl)-5,6,7,8-tetrahydro-1,6-naphthyridin-3-yl)-2,3-dihydro-1H-pyrido[2,3-b][1,4]oxazine]: the maximum response (Emax) at 30 µM is 107% and the 50% effective concentration (EC50) stood at 1610 nM.
For `Cc1nc(N2CCc3ncc(C(F)(F)F)cc3C2)c2ccccc2n1` [Compound 138, 2-methyl-4-[3-(trifluoromethyl)-7,8-dihydro-5H-1,6-naphthyridin-6-yl]quinazoline], in that order: 82% and 480 nM.
The corresponding values for `Cc1nc(N2CCc3ncc(C(C)(O)C(F)(F)F)cc3C2)c2cc(Cl)ccc2n1` (centres unmarked) [Compound 291, 2-(6-(6-chloro-2-methylquinazolin-4-yl)-5,6,7,8-tetrahydro-1,6-naphthyridin-3-yl)-1,1,1-trifluoropropan-2-ol] are 97% and 400 nM.
For `FC(F)(F)c1cnc2c(c1)CN(c1ncnc3ccc(Cl)cc13)CC2` [Compound 140, 6-chloro-4-[3-(trifluoromethyl)-7,8-dihydro-5H-1,6-naphthyridin-6-yl]quinazoline], in that order: 105% and 80 nM.
For the compound `Cn1nccc1-c1cnc2c(c1)CN(c1ncnc3cc(F)c(F)cc13)CC2` [Compound 239, 6,7-difluoro-4-(3-(1-methyl-1H-pyrazol-5-yl)-7,8-dihydro-1,6-naphthyridin-6(5H)-yl)quinazoline], the Emax at 30 µM worked out at 73% and the concentration for a half-maximal effect (EC50) stood at 800 nM.
The corresponding values for `COc1ccc2ncnc(N3CCc4ncc(Nc5ccnn5C)cc4C3)c2c1` [Compound 80, 6-(6-methoxyquinazolin-4-yl)-N-(2-methylpyrazol-3-yl)-7,8-dihydro-5H-1,6-naphthyridin-3-amine] are 98% and 500 nM.
For `CC1CN(c2ncnc3ccc(F)cc23)Cc2cc(N3C(=O)COc4ccccc43)cnc21` (centres unmarked) [Compound 251, 4-(6-(6-fluoroquinazolin-4-yl)-8-methyl-5,6,7,8-tetrahydro-1,6-naphthyridin-3-yl)-2H-benzo[b][1,4]oxazin-3(4H)-one], in that order: 75% and 750 nM.
The corresponding values for `Cc1nc(N2CCc3ncc(-c4c(C)noc4C)cc3C2)c2cc(Cl)ccc2n1` [Compound 47, 4-[6-(6-chloro-2-methyl-quinazolin-4-yl)-7,8-dihydro-5H-1,6-naphthyridin-3-yl]-3,5-dimethyl-isoxazole] are 99% and 140 nM.
Consider `Cc1ccc(F)cc1-c1cnc2c(c1)CN(c1ncnc3ccc(F)cc13)CC2` [Compound 293, 6-fluoro-4-(3-(5-fluoro-2-methylphenyl)-7,8-dihydro-1,6-naphthyridin-6(5H)-yl)quinazoline], for which the Emax at 30 µM was found to be 80% and the EC50 was found to be 740 nM.
For `FC(F)(F)c1cnc2c(c1)CN(c1nc(C3CC3)nc3ccc(Cl)cc13)CC2` [Compound 186, 6-chloro-2-cyclopropyl-4-[3-(trifluoromethyl)-7,8-dihydro-5H-1,6-naphthyridin-6-yl]quinazoline], in that order: 75% and greater than 10000 nM.
The corresponding values for `Cn1nccc1Nc1cnc2c(c1)CN(c1ncnc3ccc(F)cc13)CC2` [Compound 75, 6-(6-fluoroquinazolin-4-yl)-N-(2-methylpyrazol-3-yl)-7,8-dihydro-5H-1,6-naphthyridin-3-amine] are 100% and 30 nM.
The corresponding values for `COc1ccc2ncnc(N3CCc4ncc(Oc5cc(C)ccc5F)cc4C3)c2c1` [Compound 153, 4-[3-(2-fluoro-5-methyl-phenoxy)-7,8-dihydro-5H-1,6-naphthyridin-6-yl]-6-methoxy-quinazoline] are 38% and greater than 10000 nM.
As to `Cc1cc(F)ncc1-c1cnc2c(c1)CN(c1ncnc3ccc(Cl)cc13)CC2` [Compound 310, 6-chloro-4-(3-(6-fluoro-4-methylpyridin-3-yl)-7,8-dihydro-1,6-naphthyridin-6(5H)-yl)quinazoline], the Emax at 30 µM was determined as 86% and the half-maximal effective concentration (EC50) came out at 60 nM.
For `COc1ccc2nc(Cl)nc(N3CCc4ncc(C(F)(F)F)cc4C3)c2c1` [Compound 166, 2-chloro-6-methoxy-4-[3-(trifluoromethyl)-7,8-dihydro-5H-1,6-naphthyridin-6-yl]quinazoline], in that order: 70% and 420 nM.
Regarding `Cc1ccc2ncnc(N3CCc4ncc(N5CCC(C(F)(F)F)n6nccc65)cc4C3)c2c1` (centres unmarked) [Compound 91, 6-methyl-4-[3-[7-(trifluoromethyl)-6,7-dihydro-5H-pyrazolo[1,5-a]pyrimidin-4-yl]-7,8-dihydro-5H-1,6-naphthyridin-6-yl]quinazoline], the maximal response (Emax) at 30 µM was 116% and the 50% effective concentration (EC50) came to 130 nM.
With `Fc1ccc2ncnc(N3CCc4ncc(N5CCCn6nc(C7CC7)cc65)cc4C3)c2c1` [Compound 280, 4-(3-(2-cyclopropyl-6,7-dihydropyrazolo[1,5-a]pyrimidin-4(5H)-yl)-7,8-dihydro-1,6-naphthyridin-6(5H)-yl)-6-fluoroquinazoline], the maximal effect (Emax) at 30 µM was 90% and the 50% effective concentration (EC50) is 390 nM.
As to `Cc1nc(N2CCc3ncc(C(F)(F)F)cc3C2)c2cc(Cl)ccc2n1` [Compound 134, 6-chlroo-2-methyl-4-[3-(trifluoromethyl)-7,8-dihydro-5H-1,6-naphthyridin-6-yl]quinazoline], the Emax at 30 µM came to 75% and the EC50 worked out at 90 nM.
The corresponding values for `Cc1ccc(-c2cnc3c(c2)CN(c2nc(C)nc4ccc(F)cc24)CC3)cn1` [Compound 26, 6-fluoro-2-methyl-4-[3-(6-methyl-3-pyridyl)-7,8-dihydro-5H-1,6-naphthyridin-6-yl]quinazoline] are 102% and 130 nM.
For `Cc1nc(N2CCc3ncc(N4CCCn5nccc54)cc3C2)c2cc(Cl)ccc2n1` [Compound 84], in that order: 114% and 230 nM.
For `Cn1nccc1Nc1cnc2c(c1)CN(c1nc(N3CCOCC3)nc3ccc(F)cc13)CC2` [Compound 185, 6-(6-fluoro-2-morpholino-quinazolin-4-yl)-N-(2-methylpyrazol-3-yl)-7,8-dihydro-5H-1,6-naphthyridin-3-amine], in that order: 83% and 390 nM.
`Cc1ccc(-c2cnc3c(c2)CN(c2nc(Cl)nc4ncccc24)CC3)cn1` [Compound 36, 2-chloro-4-[3-(6-methyl-3-pyridyl)-7,8-dihydro-5H-1,6-naphthyridin-6-yl]pyrido[2,3-d]pyrimidine]: the maximal response (Emax) at 30 µM was determined as 69% and the EC50 came to 650 nM.
For `Cc1ccc(F)c(Oc2cnc3c(c2)CN(c2ncnc4ccc(F)cc24)CC3)c1` [Compound 148, 6-fluoro-4-[3-(2-fluoro-5-methyl-phenoxy)-7,8-dihydro-5H-1,6-naphthyridin-6-yl]quinazoline], in that order: 88% and 760 nM.
Take `Cc1nc(N2Cc3cc(C(F)(F)F)cnc3C(C)(C)C2)c2cc(F)ccc2n1` [Compound 118, 4-[8,8-dimethyl-3-(trifluoromethyl)-5,7-dihydro-1,6-naphthyridin-6-yl]-6-fluoro-2-methyl-quinazoline]: the maximal effect (Emax) at 30 µM is 63% and the concentration for a half-maximal effect (EC50) turned out to be 8390 nM.
The corresponding values for `C[C@H]1CN(c2ncnc3ccc(Cl)cc23)Cc2cc(N3CCOCC3)cnc21` [Compound 263, (S)-4-(6-(6-chloroquinazolin-4-yl)-8-methyl-5,6,7,8-tetrahydro-1,6-naphthyridin-3-yl)morpholine] are 88% and 160 nM.
For `CC1CN(c2ncnc3ccc(F)cc23)Cc2cc(NC3CCCC3)cnc21` (centres unmarked) [Compound 233, N-cyclopentyl-6-(6-fluoroquinazolin-4-yl)-8-methyl-5,6,7,8-tetrahydro-1,6-naphthyridin-3-amine], in that order: 84% and 410 nM.
For `Cc1nc(N2CCc3ncc(N4CCO[C@H](c5ccccc5)C4)cc3C2)c2cc(F)ccc2n1` [Compound 217, (R)-4-(6-(6-fluoro-2-methylquinazolin-4-yl)-5,6,7,8-tetrahydro-1,6-naphthyridin-3-yl)-2-phenylmorpholine], in that order: 84% and 1700 nM.
Consider `CC1CN(c2ncnc3ccc(F)cc23)Cc2cc(Nc3ncnc4ccc(F)cc34)cnc21` (centres unmarked) [Compound 237, 6-fluoro-N-(6-(6-fluoroquinazolin-4-yl)-8-methyl-5,6,7,8-tetrahydro-1,6-naphthyridin-3-yl)quinazolin-4-amine], for which the Emax at 30 µM is 55% and the EC50 was 1400 nM.
In the case of `CC(C)(O)CNc1nc(N2CCc3ncc(N4CCCn5nccc54)cc3C2)c2cccnc2n1` [Compound 247, 1-((4-(3-(6,7-dihydropyrazolo[1,5-a]pyrimidin-4(5H)-yl)-7,8-dihydro-1,6-naphthyridin-6(5H)-yl)pyrido[2,3-d]pyrimidin-2-yl)amino)-2-methylpropan-2-ol], the maximum response (Emax) at 30 µM is 80% and the EC50 is 370 nM.
